This is an account of results in patent US8637321B2, “Lipidomics approaches for central nervous system disorders” (priority 2005, dated 2014).

The test system of data set [1] is patients with schizophrenia. Briefly: Clinical Global Impressions (CGI) Scale psychopathology assessment. Particulars: means and standard error; for CGI Affective, Post / CGI Negative, Post / CGI Positive, Post: CGI Scale 1 to 7, higher scores greater severity; for CGI Change, Post: overall global change rating at follow-up (1-2 responders, 3-6 non-responders). The data set is classed as in vivo, human. The text has this:
(§1) Fifty male and female patients were recruited in two studies for metabolic profiling (Table VI and Table VII for demographics). Subjects ranged in age from 18 to 60 years and met the following inclusion criteria: a) DSM-IV criteria for schizophrenia, schizophreniform disorder, or schizoaffective disorder; b) newly hospitalized for a psychotic exacerbation in the setting of no antipsychotic treatment for at least 3 weeks prior to admission; and c) provided signed informed consent. Patients with psychoses due to psychoactive substance abuse or an underlying medical condition were excluded. Patients who were receiving treatment for diabetes mellitus or hyperlipidemia were also excluded.
The choice and dose of antipsychotic medication was based on the doctor's judgment. […] The treatment duration was 2-3 weeks. […] The 2-3 week duration permits the study of acute early effects.
Psychopathology was assessed on the Clinical Global Impressions (CGI) Scale at baseline and at the time of follow-up blood draws. Scores for the CGI Scale can range from 1 to 7, with higher scores indicating greater severity of illness (Guy (1975) ECDEU Assessment Manual for Psychopharmacology: Publication ADM 76-338. Washington, D.C.: US Department of Health, Education, and Welfare). An overall global change rating was also made at the time of the follow-up blood draw.

Data set [2] relates to patients with schizophrenia. As to the kind of experiment: plasma lipid profiling pre- and post-treatment with antipsychotics. On CE18:3n3 I/D: key: I: increase; D: decrease. On CE18:3n6 I/D: key: I: increase; D: decrease. On CE20:3n6 I/D: key: I: increase; D: decrease. On CE20:5n3 I/D: key: I: increase; D: decrease. On FA18:0 I/D: key: I: increase; D: decrease. On FA20:4n6 I/D: key: I: increase; D: decrease. On FA22.1n9 I/D: key: I: increase; D: decrease. On FASAT I/D: key: I: increase; D: decrease. On FCLC I/D: key: I: increase; D: decrease. On LY20:3n6 I/D: key: I: increase; D: decrease. On LY20:3n9 I/D: key: I: increase; D: decrease. On LY20:4n3 I/D: key: I: increase; D: decrease. On LY20:5n3 I/D: key: I: increase; D: decrease. On PC.n9 I/D: key: I: increase; D: decrease. On PC18:0 I/D: key: I: increase; D: decrease. On PC18:1n9 I/D: key: I: increase; D: decrease. On PC20:2n6 I/D: key: I: increase; D: decrease. On PC20:3n6 I/D: key: I: increase; D: decrease. On PC20:3n9 I/D: key: I: increase; D: decrease. On PC20:4n3 I/D: key: I: increase; D: decrease. On PC20:5n3 I/D: key: I: increase; D: decrease. On PC22:0 I/D: key: I: increase; D: decrease. On PC22:4n6 I/D: key: I: increase; D: decrease. On PCLC I/D: key: I: increase; D: decrease. On PE18:3n6 I/D: key: I: increase; D: decrease. On PE20:3n6 I/D: key: I: increase; D: decrease. On PE20:3n9 I/D: key: I: increase; D: decrease. On PE20:5n3 I/D: key: I: increase; D: decrease. On PE22:5n6 I/D: key: I: increase; D: decrease. On PELC I/D: key: I: increase; D: decrease. On SP14:0 I/D: key: I: increase; D: decrease. On SP20:3n6 I/D: key: I: increase; D: decrease. On SPSAT I/D: key: I: increase; D: decrease. On TG14:0 I/D: key: I: increase; D: decrease. On TG18:0 I/D: key: I: increase; D: decrease. On TG20:1n9 I/D: key: I: increase; D: decrease. On TG20:3n6 I/D: key: I: increase; D: decrease. On TG20:4n3 I/D: key: I: increase; D: decrease. On TGLC I/D: key: I: increase; D: decrease. The data set is classed as in vivo, human.
Description: as §1
The choice and dose of antipsychotic medication was based on the doctor's judgment. […] The treatment duration was 2-3 weeks. […] The mean duration of therapy was about 2 weeks for all 3 drugs in Study II. The drug groups were otherwise generally similar in severity of disease and physical characteristics (Table VI and Table VII). The 2-3 week duration permits the study of acute early effects.
All blood samples were drawn from subjects in the early morning after overnight fasting. Blood was drawn into vacutainer tubes containing sodium heparin, immediately placed on ice, and within 10 minutes, the blood was centrifuged and the plasma was transferred into polypropylene tubes and stored in a −30° C. freezer. All baseline samples were drawn prior to starting antipsychotic treatment in the study. If a patient had received a dose of an antipsychotic during the referral process (e.g., because of agitation when initially seen in a local emergency department), drawing of baseline plasma samples was delayed for 2-3 days. Follow-up samples were drawn after patients had received an average of 2-3 weeks of acute antipsychotic treatment.
A comprehensive assessment of plasma lipid profiles was performed (Lipomics Technologies, West Sacramento, Calif.) according to established methods (Watkins, et al. (2002) J. Lipid Res. 43(11):1809-17). Quantitative measurements of fatty acids in various lipid classes were determined as nmol fatty acid/gram of plasma. Lipid classes included cholesterol esters (CE), free cholesterol (FC), triacylglycerols (TG), diacylglycerols (DG), free fatty acids (FA), lysophosphatidylcholine (LY), phosphatidylcholine (PC), and phosphatidylethanolamine (PE). Lipid metabolites are identified by the lipid class and the fatty acid moiety. In the context of this invention, fatty acids are identified first by the number of carbons in the molecule (e.g., 20), the number of double bonds in the molecule (e.g., 4), and lastly the position of the double bonds (e.g., n6). To illustrate, PC20:4n6 denotes a phosphatidylcholine molecule containing a 20 carbon fatty acid with 4 double bonds at the n6 position.
Significant differences between pre- and post-drug treatment were assessed by paired t-tests. Evaluation of response to drug was assessed by two-way ANOVA. All statistics were done using R with the following functions: t.test, anova, prcomp, and g/m (Team RDC (2005) R: A language and environment for statistical computing. R Foundation for Statistical Computing). Before beginning statistical analyses, change detection was used to determine if observed signals were greater than that which could be expected by chance (noise). The chance distribution of p-values was determined by permuting the outcome groupings (Golub, et al. (1999) Science 286(5439):531-7). Briefly, P values for the appropriate comparison were calculated for each metabolite using a Student's t-test. The metabolites were ranked by p value from smallest to largest. The log of the rank versus the log of the p value for each comparison of interest was plotted and is represented by a colored line. The distribution of p values expected by chance at each rank is indicated by the shaded area. […]

For data set [3] the following is noted: cited from earlier work; for effect on serum lipids / effects on serum glucose: in vivo; for risk of DM / metabolic effect: patients with schizophrenia; for weight gain, mean increases during the first year of therapy: prospective data.
Setting [4] is: Study I, after 2-3 weeks treatment.
[5] abbreviates: Study II, about 2 weeks treatment.
[6] abbreviates: Study I, plasma, post-treatment vs pre-treatment.
[7] abbreviates: Study II, plasma, post vs pre-treatment.
The mark [8] stands for this setting: plasma, mole percentage data, post treatment compared with pretreatment.
[9] abbreviates: plasma, total lipid class data (nmol/g sample), post treatment compared with pretreatment.

Structures are written as SMILES.

In the case of `O=C1CCc2ccc(OCCCCN3CCN(c4cccc(Cl)c4Cl)CC3)cc2N1` [Aripiprazole, aripiprazole], in data set [1] (setting [4]), the “CGI Affective, Post” value was 1.5 ± 0.3; the “CGI Negative, Post” value came out at 1.3 ± 0.3; the “CGI Positive, Post” value turned out to be 2.5 ± 0.3. The “CGI Change, Post” value in data set [1] (Study I) was 2.5 ± 0.3. In addition, in data set [1] (setting [5]), the “CGI Affective, Post” value stood at 1.4 ± 0.2; the “CGI Negative, Post” value is reported as 1.6 ± 0.3; the “CGI Positive, Post” value stood at 2.5 ± 0.2. The “CGI Change, Post” value in data set [1] (Study II) is on record as 2.8 ± 0.2. Moreover, in data set [2] (setting [6]), the PE class concentration entry is on record as “increased”; the fatty acid concentrations entry was “very little change”; the lipid changes overall result was “Minimal significant lipid changes”; the “n7 and n9 free fatty acids” value is recorded as “no change”. In addition, in data set [2] (setting [6]), the “total lipid classes other than PE” value is reported as “no other total lipid class changes”. The lipid changes overall entry in data set [2] (Study II (replication set), plasma, post vs pre-treatment) was “minimal lipid changes”. Besides, in data set [2] (setting [7]), the fatty acid concentrations entry is “very little change” and the “other lipid classes (than PE)” value is “No significant changes”. The PE concentration entry in data set [2] (Study II, plasma, post-treatment vs pre-treatment) was “increased”. Further, the “plasma fatty acid compositions” value in data set [2] (patients after treatment) is reported as “affected minimally”. Also, in data set [2] (setting [8]), the “CE18:0 I/D” value is recorded as “I”, the “LY22.5n3 I/D” value is reported as “I”, the “PC22:5n6 I/D” value was “I” and the “SP14:1n5 I/D” value is “I”. In data set [2] (setting [8]), the “SP18:3n3 I/D” value is recorded as “I”, the “SPSAT I/D” value is on record as “I”, the “TG18:0 I/D” value is given as “I” and the “TG22:2n6 I/D” value was “I”. Moreover, in data set [2] (setting [9]), the “PELC I/D” value was “I”. In data set [3], the “effect on serum lipids” value was “lipid-neutral” and the “effects on serum glucose” value is reported as “minimal effects”.

Consider `Cc1cc2c(s1)Nc1ccccc1N=C2N1CCN(C)CC1` [Olanzapine, olanzapine], for which, in data set [1] (setting [4]), the “CGI Affective, Post” value was 1.5 ± 0.2; the “CGI Negative, Post” value is 2.2 ± 0.3; the “CGI Positive, Post” value was determined as 2.9 ± 0.2. For the same molecule, in data set [1] (Study I), the “CGI Change, Post” value turned out to be 2.8 ± 0.2. For the same molecule, in data set [1] (setting [5]), the “CGI Affective, Post” value was found to be 1.2 ± 0.2; the “CGI Negative, Post” value is given as 1 ± 0; the “CGI Positive, Post” value stood at 2.4 ± 0.2. The “CGI Change, Post” value in data set [1] (Study II) was 3 ± 0.3. Also, in data set [2] (setting [8]), the “CE18:3n3 I/D” value is “I”, the “CE18:3n6 I/D” value is reported as “I”, the “CE20:3n6 I/D” value is reported as “I” and the “CE20:5n3 I/D” value was “I”. For the same molecule, in data set [2] (setting [8]), the “FA18:0 I/D” value was “I”, the “FA20:4n6 I/D” value is “I”, the “FA22.1n9 I/D” value was “I” and the “FASAT I/D” value was “I”. Moreover, in data set [2] (setting [8]), the “LY20:3n6 I/D” value was “I”, the “LY20:3n9 I/D” value is reported as “I”, the “LY20:4n3 I/D” value is on record as “I” and the “LY20:5n3 I/D” value is listed as “I”. In data set [2] (setting [8]), the “PC18:0 I/D” value is listed as “I”, the “PC18:1n9 I/D” value is given as “I”, the “PC20:2n6 I/D” value is listed as “I” and the “PC20:3n6 I/D” value is reported as “I”. Besides, in data set [2] (setting [8]), the “PC20:3n9 I/D” value is “I”, the “PC20:4n3 I/D” value was “I”, the “PC20:5n3 I/D” value is on record as “I” and the “PC22:0 I/D” value is “I”. Besides, in data set [2] (setting [8]), the “PC22:4n6 I/D” value is on record as “I”, the “PC.n9 I/D” value is reported as “I”, the “PE18:3n6 I/D” value was “I” and the “PE20:3n6 I/D” value is “I”. Moreover, in data set [2] (setting [8]), the “PE20:3n9 I/D” value was “I”, the “PE20:5n3 I/D” value was “I”, the “PE22:5n6 I/D” value is on record as “I” and the “SP14:0 I/D” value is “I”. Besides, in data set [2] (setting [8]), the “SP20:3n6 I/D” value was “I”, the “SPSAT I/D” value was “I”, the “TG14:0 I/D” value is “I” and the “TG20:1n9 I/D” value is “I”. For the same molecule, in data set [2] (setting [8]), the “TG20:3n6 I/D” value is “I” and the “TG20:4n3 I/D” value is “I”. In data set [2] (setting [9]), the “FCLC I/D” value is recorded as “I”, the “PCLC I/D” value is “I”, the “PELC I/D” value is listed as “I” and the “TGLC I/D” value is on record as “I”. Also, in data set [3], the “risk of DM / metabolic effect” value is “higher risk” and the “weight gain, mean increases during the first year of therapy” value was 15.0-26.0 lbs.

Consider `CN1CCN(C2=Nc3cc(Cl)ccc3Nc3ccccc32)CC1` [clozapine], for which, in data set [3], the “risk of DM / metabolic effect” value was “higher risk”.

On to `O=C(CCCN1CCC(O)(c2ccc(Cl)cc2)CC1)c1ccc(F)cc1` [haloperidol], for which the “risk of DM / metabolic effect” value in data set [3] is on record as “metabolically neutral”.

For `OCCOCCN1CCN(C2=Nc3ccccc3Sc3ccccc32)CC1` [quetiapine], in data set [3], the “effect on serum lipids” value is listed as “discrepant data” and the “weight gain, mean increases during the first year of therapy” value is reported as 6.1-12.3 lbs.

Consider `O=C1Cc2cc(CCN3CCN(c4nsc5ccccc45)CC3)c(Cl)cc2N1` [ziprasidone], for which, in data set [3], the “effect on serum lipids” value is recorded as “lipid-neutral” and the “effects on serum glucose” value was “minimal effects”.
